Source: patent US20250179066A1, “ZWITTERIONIC ANTIBACTERIAL COMPOUNDS” (Hoffmann-La Roche Inc., priority 2022, published 2025)
Structures can show the parent of a compound that is named as a salt.

Tested on: Acinetobacter baumannii ATCC17961
Experiment: Antimicrobial susceptibility testing: 90% growth inhibitory concentration (IC90) determination
Assay type: cell-based
Settings: Acinetobacter baumannii, ATCC17961, 16 h, 90% growth inhibitory concentration against Acinetobacter baumannii ATCC17961, Iso-Sensitest broth, OD 600 nm over 16 h; read-out: ATCC 17961 IC90
Method in brief: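 Twofold serial dilutions (e.g. 10 to 0.0195 μM final) in Iso-Sensitest broth inoculated at ~5×10^5 CFU/mL, incubated at 35±2° C. OD600 read every minute for 16 h; IC90 is the concentration inhibiting 90% of growth during logarithmic phase.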

| IC90 [µM] | SMILES |
| --- | --- |
| 0.43 | Cn1c(-c2cn(-c3ccc(NCCO)cn3)nc2C(F)(F)F)cnc1C(=O)Nc1ccc(C(=O)N2CCN(C(=O)[C@H]3CC[N@+](CC(=O)O)(CC4CNC4)CC3)CC2)c(Cl)c1 [Example 38, cis-2-[1-(azetidin-3-ylmethyl)-4-[4-[2-chloro-4-[[5-[1-[5-(2-hydroxyethylamino)-2-pyridyl]-3-(trifluoromethyl)pyrazol-4-yl]-1-methyl-imidazole-2-carbonyl]amino]benzoyl]piperazine-1-carbonyl]piperidin-1-ium-1-yl]acetic acid; formate] |
| 0.43 | Cn1c(-c2cn(-c3ccc4c(ccn4C)n3)nc2C(F)(F)F)cnc1C(=O)Nc1ccc(C(=O)N2CCN(C(=O)[C@H]3CC[N@+](CC(=O)O)(CC4CNC4)CC3)CC2)c(Cl)c1 [Example 39, cis-2-[1-(azetidin-3-ylmethyl)-4-[4-[2-chloro-4-[[1-methyl-5-[1-(1-methylpyrrolo[3,2-b]pyridin-5-yl)-3-(trifluoromethyl)pyrazol-4-yl]imidazole-2-carbonyl]amino]benzoyl]piperazine-1-carbonyl]piperidin-1-ium-1-yl]acetic acid. 1:1 2,2,2-trifluoroacetate] |
| 0.43 | CC(C)Nc1ccc(-n2cc(-c3cnc(C(=O)Nc4ccc(C(=O)N5CCN(C(=O)C6CC[N+](CC(=O)O)(CC7CNC7)CC6)CC5)c(Cl)c4)n3C)c(C(F)(F)F)n2)nc1 (centres unmarked) [Example 40, 2-[1-(azetidin-3-ylmethyl)-4-[4-[2-chloro-4-[[5-[1-[5-(isopropylamino)-2-pyridyl]-3-(trifluoromethyl)pyrazol-4-yl]-1-methyl-imidazole-2-carbonyl]amino]benzoyl]piperazine-1-carbonyl]piperidin-1-ium-1-yl]acetic acid. 1:1 formate] |
| 0.44 | Cn1c(-c2cn(-c3ccc(Nc4ccccn4)cn3)nc2C(F)(F)F)cnc1C(=O)Nc1ccc(C(=O)N2CCN(C(=O)C3CC[N+](CC(=O)O)(CC4CNC4)CC3)CC2)c(Cl)c1 (centres unmarked) [Example 41, 2-[1-(azetidin-3-ylmethyl)-4-[4-[2-chloro-4-[[1-methyl-5-[1-[5-(2-pyridylamino)-2-pyridyl]-3-(trifluoromethyl)pyrazol-4-yl]imidazole-2-carbonyl]amino]benzoyl]piperazine-1-carbonyl]piperidin-1-ium-1-yl]acetic acid. 1:1 formate] |
| 0.44 | Cn1c(-c2cn(-c3ccc4[nH]ncc4n3)nc2C(F)(F)F)cnc1C(=O)Nc1ccc(C(=O)N2CCN(C(=O)[C@H]3CC[N@+](CC(=O)O)(CC4CNC4)CC3)CC2)c(Cl)c1 [Example 42, cis-2-[1-(azetidin-3-ylmethyl)-4-[4-[2-chloro-4-[[1-methyl-5-[1-(1H-pyrazolo[4,3-b]pyridin-5-yl)-3-(trifluoromethyl)pyrazol-4-yl]imidazole-2-carbonyl]amino]benzoyl]piperazine-1-carbonyl]piperidin-1-ium-1-yl]acetic acid. 1:1 2,2,2-trifluoroacetate] |
| 0.46 | Cn1c(-c2cn(-c3nccs3)nc2C(F)(F)F)cnc1C(=O)Nc1ccc(C(=O)N2CCN(C(=O)C3CC[N+](CC(=O)O)(CC4CNC4)CC3)CC2)c(Cl)c1 (centres unmarked) [Example 43, 2-[1-(azetidin-3-ylmethyl)-4-[4-[2-chloro-4-[[1-methyl-5-[1-thiazol-2-yl-3-(trifluoromethyl)pyrazol-4-yl]imidazole-2-carbonyl]amino]benzoyl]piperazine-1-carbonyl]piperidin-1-ium-1-yl]acetic acid. 1:1 formate] |
| 0.49 | Cn1c(-c2cn(-c3ccc(NC4CC4)cn3)nc2C(F)(F)F)cnc1C(=O)Nc1ccc(C(=O)N2CCN(C(=O)C3CC[N+](CC(=O)O)(CC4CNC4)CC3)CC2)c(Cl)c1 (centres unmarked) [Example 44, 2-[1-(azetidin-3-ylmethyl)-4-[4-[2-chloro-4-[[5-[1-[5-(cyclopropylamino)-2-pyridyl]-3-(trifluoromethyl)pyrazol-4-yl]-1-methyl-imidazole-2-carbonyl]amino]benzoyl]piperazine-1-carbonyl]piperidin-1-ium-1-yl]acetic acid. 1:1 formate] |
| 0.5 | CN(C)c1ccc(-n2cc(-c3cnc(C(=O)Nc4ccc(C(=O)N5CCN(C(=O)C6CC[N+](CC(=O)O)(CC7CNC7)CC6)CC5)c(Cl)c4)n3C)c(C(F)(F)F)n2)nc1 (centres unmarked) [Example 45, 2-[1-(azetidin-3-ylmethyl)-4-[4-[2-chloro-4-[[5-[1-[5-(dimethylamino)-2-pyridyl]-3-(trifluoromethyl)pyrazol-4-yl]-1-methyl-imidazole-2-carbonyl]amino]benzoyl]piperazine-1-carbonyl]piperidin-1-ium-1-yl]acetic acid. 1:1 formate] |
| 0.5 | CN(C)c1ccc(-n2cc(-c3cnc(C(=O)Nc4ccc(C(=O)N5CCN(C(=O)C6CC[N+](CC(=O)O)(CC7CNC7)CC6)CC5)c(Cl)c4)n3C)c(C(F)(F)F)n2)cc1 (centres unmarked) [Example 46, 2-[1-(azetidin-3-ylmethyl)-4-[4-[2-chloro-4-[[5-[1-[4-(dimethylamino)phenyl]-3-(trifluoromethyl)pyrazol-4-yl]-1-methyl-imidazole-2-carbonyl]amino]benzoyl]piperazine-1-carbonyl]piperidin-1-ium-1-yl]acetic acid. 1:1 formate] |
| 0.5 | Cn1c(-c2cn(-c3ccc(NC[C@H]4COCCN4)cn3)nc2C(F)(F)F)cnc1C(=O)Nc1ccc(C(=O)N2CCN(C(=O)C3CC[N+](CC(=O)O)(CC4CNC4)CC3)CC2)c(Cl)c1 (stereo partly drawn) [Example 47, 2-[1-(azetidin-3-ylmethyl)-4-[4-[2-chloro-4-[[1-methyl-5-[1-[5-[[(3S)-morpholin-3-yl]methylamino]-2-pyridyl]-3-(trifluoromethyl)pyrazol-4-yl]imidazole-2-carbonyl]amino]benzoyl]piperazine-1-carbonyl]piperidin-1-ium-1-yl]acetic acid. 1:1 2,2,2-trifluoroacetic acid. 1:1 2,2,2-trifluoroacetate] |
| 0.51 | Cn1c(-c2cn(-c3ccc(N)cn3)nc2C(F)(F)F)cnc1C(=O)Nc1ccc(C(=O)N2CCN(C(=O)[C@H]3CC[N@+](CCCN)(CC(=O)O)CC3)CC2)c(Cl)c1 [Example 48, trans-2-[1-(3-aminopropyl)-4-[4-[4-[[5-[1-(5-amino-2-pyridyl)-3-(trifluoromethyl)pyrazol-4-yl]-1-methyl-imidazole-2-carbonyl]amino]-2-chloro-benzoyl]piperazine-1-carbonyl]piperidin-1-ium-1-yl]acetic acid. 1:1 2,2,2-trifluoroacetate] |
| 0.52 | CN(C)c1ccc(-n2cc(-c3cnc(C(=O)Nc4ccc(C(=O)N5CCN(C(=O)C6CC[N+](CC(=O)O)(CC7CNC7)CC6)CC5)c(Cl)c4)n3C)c(C(F)(F)F)n2)cn1 (centres unmarked) [Example 49, 2-[1-(azetidin-3-ylmethyl)-4-[4-[2-chloro-4-[[5-[1-[6-(dimethylamino)-3-pyridyl]-3-(trifluoromethyl)pyrazol-4-yl]-1-methyl-imidazole-2-carbonyl]amino]benzoyl]piperazine-1-carbonyl]piperidin-1-ium-1-yl]acetic acid. 1:1 2,2,2-trifluoroacetate] |
| 0.52 | Cn1c(-c2cn(-c3ccc(N)cn3)nc2C(F)(F)F)cnc1C(=O)Nc1ccc(C(=O)N2CCN(C(=O)CCC[N+](CC(=O)O)(CC3CNC3)CC3CNC3)CC2)c(Cl)c1 [Example 50, [4-[4-[4-[[5-[1-(5-amino-2-pyridyl)-3-(trifluoromethyl)pyrazol-4-yl]-1-methyl-imidazole-2-carbonyl]amino]-2-chloro-benzoyl]piperazino]-4-keto-butyl]-bis(azetidin-3-ylmethyl)-(carboxymethyl)ammonium. 1:1 2,2,2-trifluoroacetic acid. 1:1 2,2,2-trifluoroacetate] |
| 0.52 | Cn1c(-c2cn(-c3ccc(NCCCCCCN)cn3)nc2C(F)(F)F)cnc1C(=O)Nc1ccc(C(=O)N2CCN(C(=O)C3CC[N+](CC(=O)O)(CC4CNC4)CC3)CC2)c(Cl)c1 (centres unmarked) [Example 51, 2-[4-[4-[4-[[5-[1-[5-(6-aminohexylamino)-2-pyridyl]-3-(trifluoromethyl)pyrazol-4-yl]-1-methyl-imidazole-2-carbonyl]amino]-2-chloro-benzoyl]piperazine-1-carbonyl]-1-(azetidin-3-ylmethyl)piperidin-1-ium-1-yl]acetic acid. 1:1 2,2,2-trifluoroacetic acid. 1:1 2,2,2-trifluoroacetate] |
| 0.53 | CNc1ccnc(-n2cc(-c3cnc(C(=O)Nc4ccc(C(=O)N5CCN(C(=O)C6CC[N+](CC(=O)O)(CC7CNC7)CC6)CC5)c(Cl)c4)n3C)c(C(F)(F)F)n2)c1 (centres unmarked) [Example 52, 2-[1-(azetidin-3-ylmethyl)-4-[4-[2-chloro-4-[[1-methyl-5-[1-[4-(methylamino)-2-pyridyl]-3-(trifluoromethyl)pyrazol-4-yl]imidazole-2-carbonyl]amino]benzoyl]piperazine-1-carbonyl]piperidin-1-ium-1-yl]acetic acid. 1:1 2,2,2-trifluoroacetate] |
| 0.55 | CN1CCN(c2ccc(-n3cc(-c4cnc(C(=O)Nc5ccc(C(=O)N6CCN(C(=O)C7CC[N+](CC(=O)O)(CC8CNC8)CC7)CC6)c(Cl)c5)n4C)c(C(F)(F)F)n3)nc2)CC1 (centres unmarked) [Example 53, 2-[1-(azetidin-3-ylmethyl)-4-[4-[2-chloro-4-[[1-methyl-5-[1-[5-(4-methylpiperazino)-2-pyridyl]-3-(trifluoromethyl)pyrazol-4-yl]imidazole-2-carbonyl]amino]benzoyl]piperazine-1-carbonyl]piperidin-1-ium-1-yl]acetic acid. 1:1 formate] |
| 0.55 | Cn1c(-c2cn(-c3ccc(O)cn3)nc2C(F)(F)F)cnc1C(=O)Nc1ccc(C(=O)N2CCN(C(=O)C3CC[N+](CC(=O)O)(CC4CNC4)CC3)CC2)c(Cl)c1 (centres unmarked) [Example 54, 2-[1-(azetidin-3-ylmethyl)-4-[4-[2-chloro-4-[[5-[1-(5-hydroxy-2-pyridyl)-3-(trifluoromethyl)pyrazol-4-yl]-1-methyl-imidazole-2-carbonyl]amino]benzoyl]piperazine-1-carbonyl]piperidin-1-ium-1-yl]acetic acid. 1:1 2,2,2-trifluoroacetate] |
